Assay results as given in publication PMC2582240, “Enhanced A3 adenosine receptor selectivity of multivalent nucleoside-dendrimer conjugates” (Journal of Nanobiotechnology, 2008).

Tests used:
A1 AR [1] = target: T1, A1 AR (Homo sapiens, UniProt P30542); assay: [35S]GTPγS binding assay in CHO A1 membranes; assay type: biochemical; conditions: for EC50: mean ± SEM, n = 3
T1 sequence (P30542 1-326): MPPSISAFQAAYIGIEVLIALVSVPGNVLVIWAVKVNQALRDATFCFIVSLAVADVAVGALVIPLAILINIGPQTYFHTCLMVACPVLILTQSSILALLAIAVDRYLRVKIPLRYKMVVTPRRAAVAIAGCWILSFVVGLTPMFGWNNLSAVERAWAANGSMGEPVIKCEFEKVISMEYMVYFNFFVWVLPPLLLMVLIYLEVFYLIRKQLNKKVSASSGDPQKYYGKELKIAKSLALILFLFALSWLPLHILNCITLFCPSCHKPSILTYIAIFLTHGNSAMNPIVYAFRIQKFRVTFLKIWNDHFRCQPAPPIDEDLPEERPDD
Experimental: (§1) CHO (Chinese hamster ovary) cells stably expressing the recombinant human ARs were cultured in Dulbecco's modified Eagle medium (DMEM) and F12 (1:1) supplemented with 10% fetal bovine serum, 100 units/mL penicillin, 100 μg/mL streptomycin, and 2 μmol/mL glutamine. After harvesting, cells were homogenized and suspended. Cells were then centrifuged at 500 g for 10 min, and the pellet was resuspended in 50 mM Tris-HCl buffer (pH 7.5) containing 10 mM MgCl2. The suspension was homogenized and was then recentrifuged at 20 000 g for 20 min at 4°C. The resultant pellets were resuspended in Tris buffer, incubated with adenosine deaminase for 30 min at 37°C, and the suspension was stored at -80°C until the binding experiments. The protein concentration was measured using the BCA Protein Assay Kit from Pierce.
[^35S]GTPγS binding was measured in 200 μl of buffer containing 50 mM Tris-HCl (pH 7.4), 1 mM EDTA, 1 mM MgCl2, 10 μM GDP, 1 mM dithiothreitol, 100 mM NaCl, 3 units/ml adenosine deaminase, 0.2 nM [^35S]GTPγS, 0.004% CHAPS, 0.5% bovine serum albumin and increasing concentrations of the ligands. Samples were started by addition of the membrane suspension (5–10 μg protein/tube) to the test tubes and incubated at 25°C for 30 min. The assay was terminated by rapid filtration through Whatman GF/B filters, pre-soaked in 50 mM Tris-HCl (pH 7.4) containing 5 mM MgCl2 and 0.02% CHAPS. Non-specific binding of [^35S]GTPγS was measured in the presence of 10 μM unlabelled GTPγS. After the filters were washed, they were placed in scintillation vials containing 5 mL of Hydrofluor scintillation buffer and counted using a Perkin Elmer Liquid Scintillation Analyzer. The EC50 values were determined using GraphPad Prism for all assays.

A3 AR [2] = target: T2, A3 AR (Homo sapiens, UniProt P0DMS8); assay: cAMP assay (inhibition of forskolin-stimulated adenylyl cyclase) in CHO cells expressing A3 AR; assay type: cell-based; conditions: for EC50: cAMP inhibition, mean ± SEM, n = 3; for A3 (adenylyl cyclase), class word: relative to total inhibition by ADAC
T2 construct: expressed in transfected cells; host or cells: CHO cells, stably transfected
T2 sequence (P0DMS8 1-318): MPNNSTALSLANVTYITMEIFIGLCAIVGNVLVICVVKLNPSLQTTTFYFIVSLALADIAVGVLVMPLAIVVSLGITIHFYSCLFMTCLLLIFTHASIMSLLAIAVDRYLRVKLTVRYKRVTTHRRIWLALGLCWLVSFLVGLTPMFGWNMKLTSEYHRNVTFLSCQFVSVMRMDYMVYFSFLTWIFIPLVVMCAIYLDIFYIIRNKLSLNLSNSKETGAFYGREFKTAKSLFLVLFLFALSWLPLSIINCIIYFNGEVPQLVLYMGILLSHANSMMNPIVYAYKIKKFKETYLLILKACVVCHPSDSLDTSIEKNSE
Experimental: (§2) CHO cells expressing either the A1 or A3 AR were seeded in 24 well plates and incubated at 37°C overnight. The following day the medium was removed and replaced with DMEM containing 50 mM HEPES, 10 μM rolipram, 3 U/ml adenosine deaminase and increasing concentrations of the compounds. After a 30 min incubation at 37°C, 10 μM of forskolin was added to stimulate cAMP levels, and the cells were incubated at 37°C for an additional 15 min. The medium was removed, and the cells were lysed with 200 μl of 0.1 M HCl. 100 μl of the HCl solution was used in the Sigma Direct cAMP Enzyme Immunoassay following the instructions provided with the kit.

A3 AR [3] = target: T2, A3 AR; assay: Radioligand binding at A3 AR ([125I]AB-MECA, CHO cell membranes)
Experimental: as §1
(§3) Radioligand binding assays were performed for A1 and A2A ARs, following the procedure described previously. Each tube in the binding assay contained 100 μL of membrane suspension (20 μg of protein), 50 μL of agonist radioligand, and 50 μL of increasing concentrations of the test ligands in Tris-HCl buffer (50 mM, pH 7.5) containing 10 mM MgCl2. The concentration of the dendrimer-ligand complexes are measured by the concentration of the dendrimer, not the ligand. Therefore, all Ki values are measured as Ki app values. Nonspecific binding was determined using a final concentration of 10 μM 5'-N-ethylcarboxamidoadenosine diluted with the buffer. The mixtures were incubated at 25°C for 60 min. Binding reactions were terminated by filtration through Whatman GF/B filters under a reduced pressure using a MT-24 cell harvester (Brandell, Gaithersburg, MD). Filters were washed three times with 5 mL of 50 mM ice-cold Tris-HCl buffer (pH 7.5). […] All of the filters were washed 3 times with Tris-HCl, pH 7.5. Filters for A1 and A2A AR binding were placed in scintillation vials containing 5 mL of Hydrofluor scintillation buffer and counted using a Perkin Elmer Liquid Scintillation Analyzer. Filters for A3 AR binding were counted using a Packard Cobra II γ-counter. The Ki values were determined using GraphPad Prism for all assays.

A1 AR [4] = target: T1, A1 AR; assay: cAMP assay (inhibition of forskolin-stimulated adenylyl cyclase) in CHO cells expressing A1 AR; assay type: cell-based; conditions: for EC50: cAMP inhibition, mean ± SEM, n = 3; for A1 (adenylyl cyclase), class word: at 10 μM, relative to total inhibition by ADAC
Experimental: as §2

A2A AR = target: T3, A2A AR (Homo sapiens, UniProt P29274); assay: Radioligand binding at A2A AR ([3H]CGS21680, HEK cells)
T3 construct: expressed in transfected cells; host or cells: CHO
T3 sequence (P29274 whole entry): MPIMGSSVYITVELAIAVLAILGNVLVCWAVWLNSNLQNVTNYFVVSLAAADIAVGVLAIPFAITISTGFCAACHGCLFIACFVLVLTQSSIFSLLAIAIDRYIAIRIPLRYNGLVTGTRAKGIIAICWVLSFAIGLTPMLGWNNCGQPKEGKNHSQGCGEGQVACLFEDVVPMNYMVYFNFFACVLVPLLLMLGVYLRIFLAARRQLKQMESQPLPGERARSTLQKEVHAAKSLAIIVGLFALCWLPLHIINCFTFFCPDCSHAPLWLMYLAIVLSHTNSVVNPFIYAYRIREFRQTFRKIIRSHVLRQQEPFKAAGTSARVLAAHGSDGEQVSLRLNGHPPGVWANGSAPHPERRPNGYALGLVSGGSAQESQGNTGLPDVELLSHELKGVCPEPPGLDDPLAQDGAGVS
Experimental: as §1, §3

A1 AR [5] = target: T1, A1 AR; assay: Radioligand binding at A1 AR ([3H]CCPA, CHO cell membranes); conditions: for Difference in affinity between the human A1 and A3 ARs / Binding at the A1 AR, in words: radioligand binding; for A1 binding, class symbol: inhibition of radioligand binding at 10 μM
Experimental: as §1
Radioligand binding assays were performed for A1 and A2A ARs, following the procedure described previously. Each tube in the binding assay contained 100 μL of membrane suspension (20 μg of protein), 50 μL of agonist radioligand, and 50 μL of increasing concentrations of the test ligands in Tris-HCl buffer (50 mM, pH 7.5) containing 10 mM MgCl2. The concentration of the dendrimer-ligand complexes are measured by the concentration of the dendrimer, not the ligand. Therefore, all Ki values are measured as Ki app values. Nonspecific binding was determined using a final concentration of 10 μM 5'-N-ethylcarboxamidoadenosine diluted with the buffer. The mixtures were incubated at 25°C for 60 min. Binding reactions were terminated by filtration through Whatman GF/B filters under a reduced pressure using a MT-24 cell harvester (Brandell, Gaithersburg, MD). Filters were washed three times with 5 mL of 50 mM ice-cold Tris-HCl buffer (pH 7.5). The radioactive agonists [^3H]2-chloro-N^6-cyclopentyladenosine and [^3H]2-(4-(2-carboxyethyl)phenylethylamino)-5'-N-ethylcarboxamido-adenosine were used for the A1 and A2A assays, respectively. All of the filters were washed 3 times with Tris-HCl, pH 7.5. Filters for A1 and A2A AR binding were placed in scintillation vials containing 5 mL of Hydrofluor scintillation buffer and counted using a Perkin Elmer Liquid Scintillation Analyzer. Filters for A3 AR binding were counted using a Packard Cobra II γ-counter. The Ki values were determined using GraphPad Prism for all assays.

[6] = system: ten-min bilateral cerebrovascular occlusion; conditions: cited from earlier work
CHO cells = assay: Light and fluorescent microscopy of CHO cells not expressing the A3 AR; assay type: cell-based, Chinese hamster; conditions: 10 μM, 1 h, one wash with PBS
Experimental: (§4) After one wash with PBS, the cells were imaged at 100× magnification on a Zeiss AxioVision D1 Imager, and both light and fluorescent pictures were obtained.
(§5) CHO or CHO A3 cells were seeded on a cover disk in a 6 well dish (250,000 cells per well). After the cells were incubated for 24 hrs at 37°C, the medium was removed and replaced with DMEM containing 10 μM of the 15 or 17. The cells were incubated for 1 h at 37°C and washed one time with PBS. The images were taken with at 100× manification using a Zeiss AxioVision D1 Imager equipped with AxioVision 4.5 software.

CHO A3 cells = assay: Light and fluorescent microscopy of CHO A3 cells; assay type: cell-based, Chinese hamster; conditions: 10 μM, 1 h, one wash with PBS, CHO cells stably expressing the A3 AR
Experimental: as §4, §5

[7] = inhibition of radioligand binding at 10 μM

`O=C(O)CCc1ccc(NC(=S)NCCNC(=O)Cc2ccc(NC(=O)Cc3ccc(Nc4ncnc5c4ncn5[C@@H]4O[C@H](CO)[C@@H](O)[C@H]4O)cc3)cc2)cc1` [Compound 4, 3-(4-(3-(2-(2-(4-(2-(4-(9-((2R,3R,4S,5R)-3,4-Dihydroxy-5-(hydroxymethyl)tetrahydrofuran-2-yl)-9H-purin-6-ylamino)phenyl)acetamido)-phenyl)acetamido)ethyl)thioureido)phenyl)pro-panoic acid] showed an EC50 (A1 AR [1]) of 1300 ± 400 nM, an EC50 (A3 AR [2]) of 140 ± 70 nM and a Ki (A3 AR [3]) of 74 ± 20 nM. It also gave an EC50 (A1 AR [4]) of 350 ± 20 nM, a Ki (A2A AR) of 800 ± 360 nM and a Ki (A1 AR [5]) of 30 ± 9 nM. The “Difference in affinity between the human A1 and A3 ARs” value (shortened to “Difference”) (A1 AR [5]) was < 5 fold.

For G3 PAMAM – 23 Ac – AF488 [Compound 11], the “Inhibition of cAMP production at the A3 AR, in words” value (A3 AR [2]; at 10 μM) was “unable to significantly inhibit cAMP production”, the “A3 (adenylyl cyclase), class word” value (A3 AR [2]; at 10 μM) was “inactive^c” and the “Inhibition of cAMP production at the A1 AR, in words” value (A1 AR [4]) was “unable to significantly inhibit cAMP production”. For the same compound, the “A1 (adenylyl cyclase), class word” value (A1 AR [4]) was “inactive^c”, the “A1 binding, class symbol” value (A1 AR [5]) was “NB^b (NB, No binding. Inhibition of radioligand binding < 10% at 10 μM)” and the “Binding at the A1 AR, in words” value (A1 AR [5]) was “no binding”.

For `NCCNC(=O)Cc1ccc(NC(=O)Cc2ccc(Nc3ncnc4c3ncn4[C@@H]3O[C@H](CO)[C@@H](O)[C@H]3O)cc2)cc1` [Compound 1, N^6-[4-[[[4-[[[(2-aminoethyl)amino]carbonyl]methyl]anilino]-carbonyl]methyl]phenyl]adenosine, reference compound], the EC50 (A1 AR [1]) is listed as 94 ± 26 nM, the EC50 (A3 AR [2]) is listed as 100 ± 50 nM and the “Protection against neuronal damage and mortality” value ([6]; acute or chronic administration prior to occlusion) is listed as “protects against neuronal damage and mortality”. The Neuronal protection post-ischemia ([6]; given up to twelve hours post-ischemia) was “provides neuronal protection”, the Ki (A3 AR [3]) was 12.2 ± 4.1 nM and the EC50 (A1 AR [4]) was 400 ± 80 nM. For the same compound, the Ki (A2A AR) was 370 ± 100 nM, the Ki (A1 AR [5]) was 10.4 ± 3.8 nM and the “Difference” value (A1 AR [5]) was < 5 fold.

For `NCCNCCNC(=O)Cc1ccc(NC(=O)Cc2ccc(Nc3ncnc4c3ncn4[C@@H]3O[C@H](CO)[C@@H](O)[C@H]3O)cc2)cc1` [Compound 7, N-(2-(2-Aminoethylamino)ethyl)-2-(4-(2-(4-(9-((2R,3R,4S,5R)-3,4-dihydroxy-5-(hydroxymethyl)-tetrahydrofuran-2-yl)-9H-purin-6-ylamino)-phenyl)acetamido)phenyl)acetamide], the “Fold more potent than 4 in activation of GTPγS binding via the A1 AR” value (A1 AR [1]) was 20 fold, the EC50 (A1 AR [1]) was 63 ± 14 nM and the “Fold more potent than either ADAC or 4 in adenylyl cyclase assay” value (A3 AR [2]; A3 AR) was 3 – 7 fold. The EC50 (A3 AR [2]) was 36 ± 13 nM, the Ki (A3 AR [3]) was 9.5 ± 2 nM and the “Fold more potent than either ADAC or 4 in adenylyl cyclase assay” value (A1 AR [4]; A1 AR) was 3 – 7 fold. For the same compound, the EC50 (A1 AR [4]) was 89 ± 17 nM, the Ki (A2A AR) was 300 ± 20 nM and the Ki (A1 AR [5]) was 43 ± 5 nM. The “Difference” value (A1 AR [5]) was < 5 fold.

In the case of G2.5 PAMAM – AF488 [Compound 15], the “A3 (adenylyl cyclase), class word” value (A3 AR [2]; at 10 μM) is reported as “inactive^c”, the “Fluorescent binding to cells” value (CHO cells) is reported as “Neither type of CHO cells were bound” and the “A3 binding, class symbol” value (A3 AR [3]; [7]) is reported as “NB^b (NB, No binding. Inhibition of radioligand binding < 10% at 10 μM)”. For the same compound, the “Fluorescent binding to cells” value (CHO A3 cells) was “Neither type of CHO cells were bound”, the “Inhibition of cAMP production at the A1 AR, in words” value (A1 AR [4]) was “no binding or activity” and the “A1 (adenylyl cyclase), class word” value (A1 AR [4]) was “inactive^c”. For the same compound, the “A2A binding, class symbol” value (A2A AR; [7]) was “NB^b (NB, No binding. Inhibition of radioligand binding < 10% at 10 μM)”, the “A1 binding, class symbol” value (A1 AR [5]) was “NB^b (NB, No binding. Inhibition of radioligand binding < 10% at 10 μM)” and the “Binding at the A1 AR, in words” value (A1 AR [5]) was “no binding”.
